Results from patent publication US10993939B2, “Compositions for treating or preventing vasomotor symptoms” (Mitsubishi Tanabe Pharma Corporation, priority 2016, dated 2021).

What was measured:
[1] = test system: female subjects experiencing Vasomotor Symptoms (VMS); experiment: Phase Ib study: core body temperature assessment; format: in vivo, human; details: 50 mg; within 24 hours post-dose on Visit Day 1, 7, 10 or 14, FIG. 4
From the text: Study Design: This was a Phase Ib, randomized, double blind, placebo controlled study. The study design is illustrated in FIG. 2. Following the initial Screening visit, eligible subjects was given an actigraphy event monitor (watch) to record episodes of flashing as Vasomotor symptoms (VMS) events during a period of 2 weeks during Screening, in order to confirm VMS eligibility criteria (>7 VMS/day on average during 2 weeks). Subjects may be required to return to the site during the Screening period to read or exchange the actigraphy event monitor. Subjects deemed eligible following review of VMS data were invited to attend the Clinical research unit (CRU) for one residential period of 16 days duration, including 14 days of Investigational Medicinal Product (IMP) administration. Subjects were admitted to the CRU 1 day prior to dosing (Day −1). No medication was administered on Day −1. On Day 1, subjects who meet the study eligibility criteria were randomized to receive one dose level of either Compound A (6 subjects) or a matching placebo (2 subjects) in a double-blind manner. Randomized treatment was administered once nightly, starting on Day 1, for a total duration of 14 days. […]

[2] = test system: naive SD rats; experiment: Evaluation of TRPM8 antagonist on core body (rectal) temperature in rats; format: in vivo
Experimental: Methods: Compound A (0.3 and 3 mg/kg) or vehicle was orally administered to naive SD rats (n=6). Rectal temperature was measured before, 1, 2, 3 and 6 hours after administration. AUC for 0 to 6 hours was calculated and statistically analyzed.

[3] = test system: female subjects experiencing Vasomotor Symptoms (VMS); experiment: Phase Ib study: frequency of vasomotor symptoms (VMS); format: in vivo, human; design: key to Mean observed value in VMS frequency (moderate and severe VMS): moderate + severe VMS events per day
From the text: Study Design: This was a Phase Ib, randomized, double blind, placebo controlled study. The study design is illustrated in FIG. 2. Following the initial Screening visit, eligible subjects was given an actigraphy event monitor (watch) to record episodes of flashing as Vasomotor symptoms (VMS) events during a period of 2 weeks during Screening, in order to confirm VMS eligibility criteria (>7 VMS/day on average during 2 weeks). Subjects may be required to return to the site during the Screening period to read or exchange the actigraphy event monitor. Subjects deemed eligible following review of VMS data were invited to attend the Clinical research unit (CRU) for one residential period of 16 days duration, including 14 days of Investigational Medicinal Product (IMP) administration. Subjects were admitted to the CRU 1 day prior to dosing (Day −1). No medication was administered on Day −1. On Day 1, subjects who meet the study eligibility criteria were randomized to receive one dose level of either Compound A (6 subjects) or a matching placebo (2 subjects) in a double-blind manner. Randomized treatment was administered once nightly, starting on Day 1, for a total duration of 14 days.
Fifty (50) mg of Compound A was administered to the female subjects experiencing Vasomotor Symptoms (VMS), and as the above-mentioned assessments, a Frequency of VMS and a Core body temperature assessment were examined.
Here a moderate VMS and a severe VMS were counted as a VMS frequency.

O=C(O)c1ccc(S(=O)(=O)N(Cc2ccc(OC(F)(F)F)cc2)c2ncc3ccccc3c2C2CC2)cc1 [Compound A, 4-({(4-cyclopropylisoquinolin-3-yl)[4-(trifluoromethoxy)benzyl]amino}sulfonyl)benzoic acid]
Change from baseline in core body temperature [1]: reduced the core body temperature significantly | Maximum decrease in rectal temperature (amplitude) ([2]; 3 mg/kg orally, at 2 hours after administration, SD rats): 0.82 °C | Rectal temperature compared to vehicle (AUC for 0 to 6 hours) ([2]; 0.3 and 3 mg/kg orally, naive SD rats, P<0.01 vs vehicle, FIG. 1): significantly reduced rectal temperature | Effect on frequency of VMS versus placebo ([3]; 50 mg once nightly, 14 days, FIG. 3): reduced the frequency of VMS significantly | Onset of the reduction effect of VMS frequency ([3]; 50 mg once nightly, FIG. 3): the reduction effect of VMS frequency was shown at Day 2 or later | Mean observed value in VMS frequency (moderate and severe VMS) ([3]; Baseline (before dosing), 50 mg group): 11.2 | Mean observed value in VMS frequency (moderate and severe VMS) ([3]; Day 1, 50 mg once nightly): 11.7 | Mean observed value in VMS frequency (moderate and severe VMS) ([3]; Day 2, 50 mg once nightly): 6.0 | Mean observed value in VMS frequency (moderate and severe VMS) ([3]; Day 3, 50 mg once nightly): 4.7 | Mean observed value in VMS frequency (moderate and severe VMS) ([3]; Day 4, 50 mg once nightly): 4.7 | Mean observed value in VMS frequency (moderate and severe VMS) ([3]; Day 5, 50 mg once nightly): 2.7 | Mean observed value in VMS frequency (moderate and severe VMS) ([3]; Day 6, 50 mg once nightly): 2.8 | Mean observed value in VMS frequency (moderate and severe VMS) ([3]; Day 7, 50 mg once nightly): 3.0 | Mean observed value in VMS frequency (moderate and severe VMS) ([3]; Day 8, 50 mg once nightly): 3.3 | Mean observed value in VMS frequency (moderate and severe VMS) ([3]; Day 9, 50 mg once nightly): 1.3 | Mean observed value in VMS frequency (moderate and severe VMS) ([3]; Day 10, 50 mg once nightly): 3.2 | Mean observed value in VMS frequency (moderate and severe VMS) ([3]; Day 11, 50 mg once nightly): 2.8 | Mean observed value in VMS frequency (moderate and severe VMS) ([3]; Day 12, 50 mg once nightly): 2.7 | Mean observed value in VMS frequency (moderate and severe VMS) ([3]; Day 13, 50 mg once nightly): 2.3 | Mean observed value in VMS frequency (moderate and severe VMS) ([3]; Day 14, 50 mg once nightly): 2.3
